Measured values from ChEMBL document CHEMBL1130922, “Solid phase synthesis of oligomannopeptoids that mimic the concanavalin A-binding trimannoside” (Bioorg Med Chem Lett, 1998).

Assay: Dissociation constant for binding to concanavalin A (ConA) was determined by fluorescence anisotropy assay

Kd [uM l-1] | SMILES
9 | CN(C)c1cccc2c(S(=O)(=O)N(CCO[C@H]3O[C@@H](CO)[C@@H](O)[C@H](O)[C@H]3O)CC(=O)N(CCO[C@H]3O[C@@H](CO)[C@@H](O)[C@H](O)[C@H]3O)CC(=O)N(CCO[C@H]3O[C@@H](CO)[C@@H](O)[C@H](O)[C@H]3O)CC(N)=O)cccc12
31 | CN(C)c1cccc2c(S(=O)(=O)N(CCO[C@H]3O[C@@H](CO)[C@@H](O)[C@H](O)[C@H]3O)CC(N)=O)cccc12
122 | CO[C@H]1[C@@H](OCCN(CC(N)=O)S(=O)(=O)c2cccc3c(N(C)C)cccc23)O[C@@H](CO)[C@@H](O)[C@@H]1O
2 | CN(C)c1cccc2c(S(=O)(=O)N(CCO[C@H]3O[C@@H](CO)[C@@H](O[C@H]4O[C@@H](CO)[C@@H](O[C@H]5O[C@@H](CO)[C@@H](O)[C@H](O)[C@H]5O)[C@H](O)[C@H]4O)[C@H](O)[C@H]3O)CC(N)=O)cccc12
12 | CN(C)c1cccc2c(S(=O)(=O)N(CCO[C@H]3O[C@@H](CO)[C@@H](O)[C@H](O)[C@H]3O)CC(=O)N(CCO[C@H]3O[C@@H](CO)[C@@H](O)[C@H](O)[C@H]3O)CC(=O)N(CCO[C@H]3O[C@@H](CO)[C@@H](O)[C@H](O)[C@H]3O)CC(=O)N(CCO[C@H]3O[C@@H](CO)[C@@H](O)[C@H](O)[C@H]3O)CC(=O)N(CCO[C@H]3O[C@@H](CO)[C@@H](O)[C@H](O)[C@H]3O)CC(=O)N(CCO[C@H]3O[C@@H](CO)[C@@H](O)[C@H](O)[C@H]3O)CC(N)=O)cccc12
18 | CN(C)c1cccc2c(S(=O)(=O)N(CCO[C@H]3O[C@@H](CO)[C@@H](O)[C@H](O)[C@H]3O)CC(=O)N(CCO[C@H]3O[C@@H](CO)[C@@H](O)[C@H](O)[C@H]3O)CC(N)=O)cccc12
12 | CN(C)c1cccc2c(S(=O)(=O)N(CCO[C@H]3O[C@@H](CO)[C@@H](O)[C@H](O)[C@H]3O)CC(=O)N(CCO[C@H]3O[C@@H](CO)[C@@H](O)[C@H](O)[C@H]3O)CC(=O)N(CCO[C@H]3O[C@@H](CO)[C@@H](O)[C@H](O)[C@H]3O)CC(=O)N(CCO[C@H]3O[C@@H](CO)[C@@H](O)[C@H](O)[C@H]3O)CC(N)=O)cccc12
14 | CN(C)c1cccc2c(S(=O)(=O)N(CCO[C@H]3O[C@@H](CO)[C@@H](O)[C@H](O)[C@H]3O)CC(=O)N(CCO[C@H]3O[C@@H](CO)[C@@H](O)[C@H](O)[C@H]3O)CC(=O)N(CCO[C@H]3O[C@@H](CO)[C@@H](O)[C@H](O)[C@H]3O)CC(=O)N(CCO[C@H]3O[C@@H](CO)[C@@H](O)[C@H](O)[C@H]3O)CC(=O)N(CCO[C@H]3O[C@@H](CO)[C@@H](O)[C@H](O)[C@H]3O)CC(N)=O)cccc12
